Reference: the NIST ThermoML archive (doi:10.1016/j.jct.2006.05.008)

Assay: molar heat capacity at constant pressure; wn = mass fraction of the nth substance listed
Conditions: Small (less than 1 g) adiabatic calorimetry

CCCCn1cc[n+](C)c1.[Br-] [1-butyl-3-methylimidazolium bromide] + O
Crystal
Conditions | molar heat capacity at constant pressure [J/K/mol]
80.69 K, w2 = 0.00482 | 98.89
80.93 K, w2 = 0.0051 | 98.9
81.42 K, w2 = 0.0169 | 89.1
83.2 K, w2 = 0.00482 | 100.65
83.26 K, w2 = 0.0051 | 100.45
83.41 K, w2 = 0.0169 | 90.19
84.28 K, w2 = 0.0495 | 71.58
85.41 K, w2 = 0.0169 | 91.5
85.62 K, w2 = 0.0051 | 101.93
85.71 K, w2 = 0.00482 | 102.22
86.99 K, w2 = 0.0495 | 72.97
87.41 K, w2 = 0.0169 | 92.8
87.99 K, w2 = 0.0051 | 103.55
88.22 K, w2 = 0.00482 | 103.95
89.41 K, w2 = 0.0169 | 94.12
89.64 K, w2 = 0.0495 | 74.29
90.39 K, w2 = 0.0051 | 105.19
90.73 K, w2 = 0.00482 | 105.63
91.42 K, w2 = 0.0169 | 95.27
92.3 K, w2 = 0.0495 | 75.61
92.8 K, w2 = 0.0051 | 106.81
93.24 K, w2 = 0.00482 | 107.29
93.42 K, w2 = 0.0169 | 96.43
94.99 K, w2 = 0.0495 | 76.9
95.24 K, w2 = 0.0051 | 108.32
95.42 K, w2 = 0.0169 | 97.66
95.77 K, w2 = 0.00482 | 108.86
97.43 K, w2 = 0.0169 | 98.68
97.68 K, w2 = 0.0051 | 109.8
97.69 K, w2 = 0.0495 | 78.16
98.29 K, w2 = 0.00482 | 110.42
99.44 K, w2 = 0.0169 | 99.85
100.14 K, w2 = 0.0051 | 111.32
100.41 K, w2 = 0.0495 | 79.41
100.82 K, w2 = 0.00482 | 111.94
101.45 K, w2 = 0.0169 | 101.05
102.61 K, w2 = 0.0051 | 112.8
103.15 K, w2 = 0.0495 | 80.66
103.35 K, w2 = 0.00482 | 113.4
103.46 K, w2 = 0.0169 | 102.17
105.09 K, w2 = 0.0051 | 114.19
105.47 K, w2 = 0.0169 | 103.12
105.88 K, w2 = 0.00482 | 114.89
105.9 K, w2 = 0.0495 | 81.82
107.49 K, w2 = 0.0169 | 104.29
107.59 K, w2 = 0.0051 | 115.72
108.42 K, w2 = 0.00482 | 116.33
108.67 K, w2 = 0.0495 | 83.08
109.51 K, w2 = 0.0169 | 105.26
110.1 K, w2 = 0.0051 | 117.14
110.97 K, w2 = 0.00482 | 117.75
111.45 K, w2 = 0.0495 | 84.27
111.54 K, w2 = 0.0169 | 106.2
112.61 K, w2 = 0.0051 | 118.54
113.51 K, w2 = 0.00482 | 119.17
113.57 K, w2 = 0.0169 | 107.35
114.24 K, w2 = 0.0495 | 85.5
115.14 K, w2 = 0.0051 | 119.96
115.6 K, w2 = 0.0169 | 108.36
116.06 K, w2 = 0.00482 | 120.61
117.04 K, w2 = 0.0495 | 86.65
117.63 K, w2 = 0.0169 | 109.39
117.68 K, w2 = 0.0051 | 121.3
118.63 K, w2 = 0.00482 | 121.93
119.66 K, w2 = 0.0169 | 110.42
119.84 K, w2 = 0.0495 | 87.83
120.23 K, w2 = 0.0051 | 122.75
121.18 K, w2 = 0.00482 | 123.35
121.69 K, w2 = 0.0169 | 111.46
122.66 K, w2 = 0.0495 | 89.01
122.78 K, w2 = 0.0051 | 124.09
123.73 K, w2 = 0.0169 | 112.39
123.74 K, w2 = 0.00482 | 124.71
125.34 K, w2 = 0.0051 | 125.46
125.48 K, w2 = 0.0495 | 90.15
125.77 K, w2 = 0.0169 | 113.34
126.3 K, w2 = 0.00482 | 126.04
127.81 K, w2 = 0.0169 | 114.42
127.91 K, w2 = 0.0051 | 126.77
128.32 K, w2 = 0.0495 | 91.34
128.86 K, w2 = 0.00482 | 127.4
129.85 K, w2 = 0.0169 | 115.33
130.48 K, w2 = 0.0051 | 128.21
131.16 K, w2 = 0.0495 | 92.52
131.42 K, w2 = 0.00482 | 128.75
131.9 K, w2 = 0.0169 | 116.36
133.06 K, w2 = 0.0051 | 129.58
133.95 K, w2 = 0.0169 | 117.4
134 K, w2 = 0.00482 | 130.13
134 K, w2 = 0.0495 | 93.65
135.64 K, w2 = 0.0051 | 131
136 K, w2 = 0.0169 | 118.35
136.57 K, w2 = 0.00482 | 131.47
136.85 K, w2 = 0.0495 | 94.81
138.05 K, w2 = 0.0169 | 119.43
139.14 K, w2 = 0.00482 | 132.79
139.19 K, w2 = 0.0051 | 132.51
139.7 K, w2 = 0.0495 | 95.99
140.1 K, w2 = 0.0169 | 120.24
141.87 K, w2 = 0.0051 | 133.88
142.16 K, w2 = 0.0169 | 121.29
142.55 K, w2 = 0.0495 | 97.17
143.39 K, w2 = 0.00482 | 135
144.23 K, w2 = 0.0169 | 122.36
144.46 K, w2 = 0.0051 | 135.42
145.41 K, w2 = 0.0495 | 98.38
145.73 K, w2 = 0.00482 | 136.26
146.29 K, w2 = 0.0169 | 123.43
147.05 K, w2 = 0.0051 | 136.72
148.27 K, w2 = 0.0495 | 99.58
148.31 K, w2 = 0.00482 | 137.61
148.35 K, w2 = 0.0169 | 124.38
149.65 K, w2 = 0.0051 | 138.06
150.42 K, w2 = 0.0169 | 125.3
150.89 K, w2 = 0.00482 | 138.87
151.13 K, w2 = 0.0495 | 100.83
152.25 K, w2 = 0.0051 | 139.46
152.48 K, w2 = 0.0169 | 126.38

101.3 kPa, Glass, w2 = 0.00482
Conditions | molar heat capacity at constant pressure [J/K/mol]
82.79 K | 103.56
85.01 K | 105.32
87.51 K | 107.36
90.01 K | 109.3
92.52 K | 111.32
95.02 K | 113.23
99.79 K | 116.7
102.06 K | 118.31
104.58 K | 120.07
107.1 K | 121.78
109.63 K | 123.51
112.16 K | 125.21
114.69 K | 126.86
117.23 K | 128.48
119.76 K | 130.09
122.3 K | 131.74
124.85 K | 133.4
127.39 K | 135.01
129.94 K | 136.58
132.49 K | 138.2
135.04 K | 139.78
137.59 K | 141.4
140.15 K | 142.95
142.71 K | 144.57
145.27 K | 146.31
147.83 K | 147.89
150.39 K | 149.45
